Test results from patent US20230095520A1, “PHARMACEUTICAL COMPOSITION FOR PREVENTING OR TREATING CANCER COMPRISING AZOLE DERIVATIVES OR PHARMACEUTICALLY ACCEPTABLE SALT THEREOF” (Yungjin Pharm. Co., Ltd., priority 2020, published 2023).

Key:
[1] = biological target: T1, Recombinant purified human CDK7 (Homo sapiens, UniProt P50613); test: CDK7 activity inhibition, ADP-Glo kinase assay; format: biochemical; details: ATP 90 μM, MBP substrate, 2 hours 30° C.
T1 construct: purchased ThermoFisher PV3868
Description: Recombinant purified human CDK7 (ThermoFisher, PV3868) and ADP Glo Kinase Assay Kit (Promega, V9102) were used. CDK7 was diluted with 1× kinase reaction buffer (40 mM Tris-Cl, pH 7.5, 20 mM MgCl2, 0.1 mg/ml BSA and 50 μM DTT) and added to a 96 well plate (CDK7 final concentration per reaction: 50 ng). It was finally treated with the compound of the present invention to a 1% DMSO aqueous solution, and a substrate cocktail containing ATP (final concentration of 90 μM) and 0.2 μg/μl MBP (myelin basic protein) in a total of 25 μl reaction mass was added to a 96 well plate, thereby initiating the enzymatic reaction. After 2 hours of incubation (30° C.), an equal volume (25 μl per reaction) of ADP Glo was added and incubated at room temperature for 60 minutes (30° C.). Thereafter, kinase detection reagent (50 μl per reaction) was added and incubated at room temperature for 30 minutes (30° C.). The kinase activity was measured by the chemiluminescence method according to the ADP Glo Kinase Assay Kit instruction manual, and the CDK7 inhibitory activity of the compounds of the present invention was calculated.

MV-4-11 cells = test: MV-4-11 cell proliferation inhibition (CCK-8); format: cell-based; details: Homo sapiens, 72 hours; for inhibition at 0.1 µM: MV4-11, MV-4-11, compound concentration 100 nM, read-out: Inhibition rate (%); for IC50: MV4-11, MV-4-11 proliferation
Description: MV-4-11 cells are one of the acute myeloid leukemia cells with a Fms-like tyrosine kinase (FLT3) gene mutation, and these cells are used to test inhibition of proliferation and survival of leukemia cells.
MV-4-11 cells cultured in a 96-well cell culture plate were treated with the compound of the present invention and cultured for 72 hours. Thereafter, the antiproliferative effect of the compound was assayed by the CCK-8 method using a tetrazolium salt.

T1 sequence (P50613 whole entry): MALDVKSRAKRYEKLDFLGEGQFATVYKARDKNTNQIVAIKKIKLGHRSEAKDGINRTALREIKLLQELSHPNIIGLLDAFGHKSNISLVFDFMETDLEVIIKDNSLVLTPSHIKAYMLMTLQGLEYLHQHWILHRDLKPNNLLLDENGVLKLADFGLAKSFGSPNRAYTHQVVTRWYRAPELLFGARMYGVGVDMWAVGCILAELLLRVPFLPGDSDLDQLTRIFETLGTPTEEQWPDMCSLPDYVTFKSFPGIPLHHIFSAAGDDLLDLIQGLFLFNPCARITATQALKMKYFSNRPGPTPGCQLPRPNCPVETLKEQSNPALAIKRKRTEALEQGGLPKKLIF
T1 sequence (P51946 whole entry partner): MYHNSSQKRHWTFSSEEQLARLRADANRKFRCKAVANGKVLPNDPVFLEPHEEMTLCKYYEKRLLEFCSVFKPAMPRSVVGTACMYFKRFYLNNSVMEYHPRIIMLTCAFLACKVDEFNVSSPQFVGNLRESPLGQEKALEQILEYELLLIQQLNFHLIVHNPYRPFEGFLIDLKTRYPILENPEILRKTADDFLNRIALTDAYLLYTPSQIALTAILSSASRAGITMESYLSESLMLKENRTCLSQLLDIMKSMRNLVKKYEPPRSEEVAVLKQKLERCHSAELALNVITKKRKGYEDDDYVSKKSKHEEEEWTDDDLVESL
T1 sequence (P51948 whole entry partner): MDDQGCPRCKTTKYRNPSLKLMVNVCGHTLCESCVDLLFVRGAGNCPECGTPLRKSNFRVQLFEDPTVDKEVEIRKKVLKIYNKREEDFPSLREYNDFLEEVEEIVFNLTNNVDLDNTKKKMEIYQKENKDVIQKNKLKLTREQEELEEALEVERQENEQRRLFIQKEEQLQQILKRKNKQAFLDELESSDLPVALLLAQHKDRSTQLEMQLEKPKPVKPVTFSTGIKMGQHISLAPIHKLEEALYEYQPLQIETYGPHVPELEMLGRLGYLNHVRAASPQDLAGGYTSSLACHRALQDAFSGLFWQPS

IC50 [1] [nM]	IC50 (MV-4-11 cells) [nM]	Compound	inhibition at 0.1 µM (MV-4-11 cells) [%]
28	45.8	C=CC(=O)Nc1ccc(-c2cccc([C@H](C)C(=O)Nc3ncc(C4CC4)s3)c2)cn1 [Compound 14]	100
11		C[C@H](C(=O)Nc1ncc(C2CC2)s1)c1cccc(-c2ccc(NC(=O)/C=C/CN(C)C)nc2)c1 [Compound 15]	100
17.8		C=CC(=O)Nc1cnc(-c2cccc([C@H](C)C(=O)Nc3ncc(C(F)(F)F)s3)c2)cn1 [Compound 37, (S)-N-(5-(3-(1-oxo-1-((5-(trifluoromethyl)thiazol-2-yl)amino)propan-2-yl)phenyl)pyrazin-2-yl)acrylamide]	100
19.2	4.5	C=CC(=O)Nc1cnc(-c2cncc([C@H](C)C(=O)Nc3ncc(C(F)(F)F)s3)c2)cn1 [Compound 52, (S)-N-(5-(5-(1-oxo-1-((5-(trifluoromethyl)thiazol-2-yl)amino)propan-2-yl)pyridin-3-yl)pyrazin-2-yl)acrylamide]	
17.8	5.2	CC(C(=O)Nc1ncc(C(F)(F)F)s1)c1cncc(-c2cnc(NC(=O)/C=C/CN(C)C)cn2)c1 (stereo not drawn) [Compound 63, (E)-4-(dimethylamino)-N-(5-(5-(1-oxo-1-((5-(trifluoromethyl)thiazol-2-yl)amino)propan-2-yl)pyridin-3-yl)pyrazin-2-yl)but-2-enamide]	
43.4	11	CC(C(=O)Nc1ncc(Cl)s1)c1cncc(-c2cnc(NC(=O)/C=C/CN(C)C)cn2)c1 (stereo not drawn) [Compound 73, (E)-N-(5-(5-(1-((5-chlorothiazol-2-yl)amino)-1-oxopropan-2-yl)pyridin-3-yl)pyrazin-2-yl)-4-(dimethylamino)but-2-enamide]	
77	30.3	CC(C(=O)Nc1ncc(C(F)(F)F)s1)c1cncc(-c2cnc(NC(=O)/C=C/CN3CCOCC3)cn2)c1 (stereo not drawn) [Compound 74, (E)-4-morpholino-N-(5-(5-(1-oxo-1-((5-(trifluoromethyl)thiazol-2-yl)amino)propan-2-yl)pyridin-3-yl)pyrazin-2-yl)but-2-enamide]	
15.4		C[C@H](C(=O)Nc1ncc(C(F)(F)F)s1)c1cccc(-c2cnc(NC(=O)/C=C/CN3CC[C@H](F)C3)cn2)c1 [Compound 117, (E)-4-((S)-3-fluoropyrrolidin-1-yl)-N-(5-(3-((S)-1-oxo-1-((5-(trifluoromethyl)thiazol-2-yl)amino)propan-2-yl)phenyl)pyrazin-2-yl)but-2-enamide]	
20		COC[C@@H]1CCCN1C/C=C/C(=O)Nc1cnc(-c2cccc([C@H](C)C(=O)Nc3ncc(C(F)(F)F)s3)c2)cn1 [Compound 118, (E)-4-((S)-2-(methoxymethyl)pyrrolidin-1-yl)-N-(5-(3-((S)-1-oxo-1-((5-(trifluoromethyl)thiazol-2-yl)amino)propan-2-yl)phenyl)pyrazin-2-yl)but-2-enamide]	
16		C[C@H](C(=O)Nc1ncc(C(F)(F)F)s1)c1cccc(-c2cnc(NC(=O)/C=C/CN3CCCCC3)cn2)c1 [Compound 120, (S,E)-N-(5-(3-(1-oxo-1-((5-(trifluoromethyl)thiazol-2-yl)amino)propan-2-yl)phenyl)pyrazin-2-yl)-4-(piperidin-1-yl)but-2-enamide]	
6		CCc1cnc(NC(=O)[C@@H](C)c2cccc(-c3cnc4c(c3)CCN4C(=O)/C=C/CN(C)C)c2)s1 [Compound 122, (S,E)-2-(3-(1-(4-(dimethylamino)but-2-enoyl)-2,3-dihydro-1H-pyrrolo[2,3-b]pyridin-5-yl)phenyl)-N-(5-ethylthiazol-2-yl)propanamide]	
5.3		CCc1cnc(NC(=O)[C@@H](C)c2cccc(-c3cnc(NC(=O)/C=C/CN4CC5CC4CO5)c(C#N)c3)c2)s1 (stereo partly drawn) [Compound 123, (E)-4-(2-oxa-5-azabicyclo[2.2.1]heptan-5-yl)-N-(3-cyano-5-(3-((S)-1-((5-ethylthiazol-2-yl)amino)-1-oxopropan-2-yl)phenyl)pyridin-2-yl)but-2-enamide]	
4.5		C=CC(=O)Nc1ncc(-c2cccc([C@H](C)C(=O)Nc3ncc(C(F)(F)F)s3)c2)cc1C#N [Compound 124, (S)-N-(3-cyano-5-(3-(1-oxo-1-((5-(trifluoromethyl)thiazol-2-yl)amino)propan-2-yl)phenyl)pyridin-2-yl)acrylamide]	
13.2		CCc1cnc(NC(=O)[C@@H](C)c2cccc(-c3cnc(NC(=O)/C=C/CN(C)C)c(C)c3)c2)s1 [Compound 125, (S,E)-4-(dimethylamino)-N-(5-(3-(1-((5-ethylthiazol-2-yl)amino)-1-oxopropan-2-yl)phenyl)-3-methylpyridin-2-yl)but-2-enamide]	
50		CCc1cnc(NC(=O)C2(c3cccc(-c4cnc(NC(=O)/C=C/CN(C)C)c(C#N)c4)c3)CC2)s1 [Compound 128, (E)-1-(3-(5-cyano-6-(4-(dimethylamino)but-2-enamido)pyridin-3-yl)phenyl)-N-(5-ethylthiazol-2-yl)cyclopropane-1-carboxamide]	
59		CCc1cnc(NC(=O)C(CC)c2cccc(-c3ccc(NC(=O)/C=C/CN(C)C)cn3)c2)s1 (stereo not drawn) [Compound 131, (E)-4-(dimethylamino)-N-(6-(3-(1-((5-ethylthiazol-2-yl)amino)-1-oxobutan-2-yl)phenyl)pyridin-3-yl)but-2-enamide]	
6.6		CCc1cnc(NC(=O)[C@@H](C)c2cccc(-c3cnc(N(C)C(=O)/C=C/CN(C)C)c(C#N)c3)c2)s1 [Compound 132, (S,E)-N-(3-cyano-5-(3-(1-((5-ethylthiazol-2-yl)amino)-1-oxopropan-2-yl)phenyl)pyridin-2-yl)-4-(dimethylamino)-N-methylbut-2-enamide]	
47		CCc1cnc(NC(=O)C2(c3cccc(-c4cnc5c(c4)CCN5C(=O)/C=C/CN(C)C)c3)CC2)s1 [Compound 133, (E)-1-(3-(1-(4-(dimethylamino)but-2-enoyl)-2,3-dihydro-1H-pyrrolo[2,3-b]pyridin-5-yl)phenyl)-N-(5-ethylthiazol-2-yl)cyclopropane-1-carboxamide]	
13		CCc1cnc(NC(=O)[C@@H](C)c2cccc(-c3cnc(NC(=O)/C=C/CN4CCOCC4)c(C#N)c3)c2)s1 [Compound 135, (S,E)-N-(3-cyano-5-(3-(1-((5-ethylthiazol-2-yl)amino)-1-oxopropan-2-yl)phenyl)pyridin-2-yl)-4-morpholinobut-2-enamide]	
33		CCc1cnc(NC(=O)[C@@H](C)c2cccc(-c3cnc(NC(=O)/C=C/CN4CCN(C)CC4)c(C#N)c3)c2)s1 [Compound 136, (S,E)-N-(3-cyano-5-(3-(1-((5-ethylthiazol-2-yl)amino)-1-oxopropan-2-yl)phenyl)pyridin-2-yl)-4-(4-methylpiperazin-1-yl)but-2-enamide]	
13		CCc1cnc(NC(=O)C(C)c2cncc(-c3cnc(NC(=O)/C=C/CN(C)C)c(C#N)c3)c2)s1 (stereo not drawn) [Compound 137, (E)-N-(5-cyano-5′-(1-((5-ethylthiazol-2-yl)amino)-1-oxopropan-2-yl)-[3,3′-bipyridin]-6-yl)-4-(dimethylamino)but-2-enamide]	
8		CCc1cnc(NC(=O)C(CC)c2cccc(-c3cnc(NC(=O)/C=C/CN(C)C)c(C#N)c3)c2)s1 (stereo not drawn) [Compound 138, (E)-N-(3-cyano-5-(3-(1-((5-ethylthiazol-2-yl)amino)-1-oxobutan-2-yl)phenyl)pyridin-2-yl)-4-(dimethylamino)but-2-enamide]	
